Target: T1, NTCP (Homo sapiens, UniProt Q14973)
T1 construct: the coding region ligated into pcDNA5/FRT; expressed in transfected cells
T1 sequence (Q14973 1-349): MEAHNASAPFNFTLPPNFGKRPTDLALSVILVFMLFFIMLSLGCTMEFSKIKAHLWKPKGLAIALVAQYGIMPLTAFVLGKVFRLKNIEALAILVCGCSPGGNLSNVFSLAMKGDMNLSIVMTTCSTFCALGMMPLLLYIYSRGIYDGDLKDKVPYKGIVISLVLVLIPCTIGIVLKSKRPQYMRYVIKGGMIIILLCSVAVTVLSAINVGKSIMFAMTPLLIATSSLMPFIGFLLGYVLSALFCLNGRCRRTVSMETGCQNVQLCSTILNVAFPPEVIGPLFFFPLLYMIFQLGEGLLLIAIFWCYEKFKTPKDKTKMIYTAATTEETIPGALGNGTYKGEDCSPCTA
Assay: Uptake of TC and CLF into CHO cells stably expressing NTCP
Assay type: cell-based
Settings: 1 μmol/L CLF, 1 and 5 minutes, fluorescence analysis and quantitative determination
Experimental: cDNA for human NTCP [Hagenbuch et al., J Clin Invest 1994 March; 93(3): 1326-1331] was cut with EcoRV and HindI and the coding region ligated into pcDNA5/FRT (Invitrogen, Life-Technologies, Carlsbad, Calif.). CHO FlpIn cells (Invitrogen, Life-Technologies) were transfected with the resulting construct using Lipofectamine® 2000 (Invitrogen, Life-Technologies). Stably transfected cells were selected with 550 μg Hygromycin-B in HAM-F12 medium (Gibco, Invitrogen, Life-Technologies). Transfected cells were cloned with the limiting dilution method. […] To further characterize the cloned cells, immunofluorescence localization of NTCP using a polyclonal antibody against NTCP [Kullak-Ublick G et al., Gastroenterology 1997 October; 113(4):1295-1305] was performed as described by Huber R D et al. [Am J Physiol Cell Physiol 2007 February; 292(2):[…]-[…]]. CHO cells expressing OATP1B1, OATP1B3 and OATP2B1 were described previously [Treiber et al., DMD 35:1400-1407, 2007]. For all transport experiments, cells grown on 3 cm culture dishes were cultured for 24 hours in media supplemented with 5 mmol/L sodium-butyrate to increase expression levels of transfected transporters [Palermo D P et al., J Biotechnol 1991 June; 19(1):35-47]. • Transport experiments with uptake of radioactively labeled substrates: These experiments were performed as described by Huber R D et al. […] Uptake was performed in the same buffers as for the radioactive substrates above. For visualization of CLF uptake, cells were immediately inspected with a Leica-DM-IRBE-inverted-microcope (Leica-Microsystems, Wetzlar, Germany) equipped with a Hamamatsu-ORKA-ER-camera (Hamamatsu-Photonoics, Japan). To determine uptake of CLF, cells were solubilized by the addition of 2 ml 1% (w/v) Triton-X-100. After complete solubilization, 1.5 ml was used to measure fluorescence in a Perkin-Elmer LS-5 luminescence-spectrometer set at λexe 486 nm (slit 10 nm) and λem 520 nm (slit 5 nm). Protein was determined with the bicinchoninic acid method using a kit from Interchim (Montfuçon, France). […]

CC(CCC(=O)NC(CCCCNC(=S)Nc1ccc(-c2c3ccc(=O)cc-3oc3cc(O)ccc23)c(C(=O)O)c1)C(=O)O)C1CCC2C3C(O)CC4CC(O)CCC4(C)C3CC(O)C12C (stereo not shown) [CLF, cholyl lysyl fluorescein]
sodium-dependent uptake of CLF mediated by NTCP: no sodium-dependent uptake

From patent US8318504B2, “MRP2 efflux pathway prognostic method” (priority 2009, dated 2012)
